For 23 compounds, IC50 results are on record in patent publication US11584755B2 (IDEAYA BIOSCIENCES, INC., priority 2017, dated 2023).

Common to all, as to format: biochemical
The target in assay [1] is hFEN1 (Homo sapiens (Human), UniProt P39748). Kind of assay: Enzymatic IC50 assay, FAM-labeled DNA oligomer substrate, fluorescence intensity (FEN1). Particulars: hFEN1 70 pM, substrate 100 nM, reaction time 20 minutes, 23° C. The procedure, abridged: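 FEN1, EXO1 or XPG was preincubated 15 min with compound, then the FAM-labelled DNA oligomer substrate was added in Tris-HCl pH 8.0 with 10 mM MgCl2 at 23° C. FEN1 was 70 pM with 100 nM substrate for 20 min, EXO1 6 nM with 30 nM for 60 min, and XPG 100 nM with 100 nM for 120 min. Reactions were EDTA-stopped and read by fluorescence intensity.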
Chain of hFEN1 (P39748 whole entry): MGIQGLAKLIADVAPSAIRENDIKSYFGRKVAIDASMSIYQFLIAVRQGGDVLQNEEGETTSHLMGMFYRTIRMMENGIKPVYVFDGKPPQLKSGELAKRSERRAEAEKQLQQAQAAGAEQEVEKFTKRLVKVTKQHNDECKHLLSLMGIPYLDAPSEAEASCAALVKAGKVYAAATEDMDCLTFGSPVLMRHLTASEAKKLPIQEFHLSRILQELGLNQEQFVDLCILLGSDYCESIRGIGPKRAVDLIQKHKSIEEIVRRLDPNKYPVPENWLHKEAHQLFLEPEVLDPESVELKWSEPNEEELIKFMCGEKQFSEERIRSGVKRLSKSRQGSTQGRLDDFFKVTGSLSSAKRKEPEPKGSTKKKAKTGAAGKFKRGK

Assay [2] has as its target hEXO1, Isoform1 (Homo sapiens (Human), UniProt Q9UQ84). Kind of assay: Enzymatic IC50 assay, FAM-labeled DNA oligomer substrate, fluorescence intensity (EXO1). Particulars: hEXO1 6 nM, substrate 30 nM, reaction time 60 minutes, 23° C. The procedure: (§1) FEN1, EXO1 or XPG enzyme was incubated with compound or vehicle (DMSO) and the FAM-labeled DNA oligomer substrate in a microtiter plate. The stop buffer contains EDTA to stop the enzymatic reaction. The plate is read for fluorescence intensity. The high control (DMSO) with high fluorescence intensity represents no inhibition of enzymatic reaction while the low control (10 μM) with low fluorescence intensity represents full inhibition of enzymatic reaction.
(§2) • FEN1 • hFEN1: 70 pM • Substrate: 100 nM • Reaction time: 20 minutes • EXO1 • hEXO1: 6 nM, Isoforml • Substrate: 30 nM • Reaction time: 60 minutes • XPG • hXPG: 100 nM • Substrate: 100 nM • Reaction time: 120 minutes
(§3) Annealing Buffer: 50 mM Tris-HCl, 50 mM NaCl, 1 mM DTT Assay buffer: 50 mM Tris-HCl pH 8.0, 10 mM MgCl2, 0.01% BSA, 1 mM DTT Stop buffer: 50 mM EDTA in assay buffer Temperature: 23° C. Total volume: 40 μl Controls: • 0% inhibition control: DMSO • 100% inhibition control: 10 μM (final) 5-chloro-3-hydroxy-1,3-dihydroquinazoline-2,4-dione Enzyme Reaction and Detection: • 1. Prepare 25 μM intermediate stock of the substrate by diluting SEQ ID NO:1, SEQ ID NO:2, and SEQ ID NO:3 in annealing buffer, in a PCR tube. • 2. Place the PCR tube on a heat block, heat at 95° C. for 3 minutes, then drop in 0.2° C. increments over 2 minutes, stopping at 25° C. • 3. Remove the tube and let the tube cool at room temperature. • 4. Transfer 10 μL of 3× final concentration test compounds or DMSO to the appropriate wells of a microtiter plate. • 5. Transfer 10 μL of 3× final concentration enzyme in assay buffer or assay buffer alone to the appropriate wells. • 6. Incubate the plate at room temperature for 15 minutes. • 7. Transfer 10 μL of 3× substrate in assay buffer to all the test wells. • 8. Incubate the plate at room temperature for prescribed reaction time. • 9. Centrifuge the plate at 1000 rpm for 1 minute. • 10. Transfer 10 μL of stop buffer to all the test wells. • 11. Centrifuge the plate at 1000 rpm for 1 minute. • 12. Read the plate on a plate reader.

Assay [3] addresses hXPG (Homo sapiens (Human), UniProt P28715). Kind of assay: Enzymatic IC50 assay, FAM-labeled DNA oligomer substrate, fluorescence intensity (XPG). Particulars: hXPG 100 nM, substrate 100 nM, reaction time 120 minutes, 23° C. The procedure: as §1, §2, §3

In general, IC50 refers to the concentration that inhibits the measured activity by half. Higher therefore signals a need for much substance.

Molecules are shown by their SMILES.

Chain of hEXO1, Isoform1 (Q9UQ84 whole entry, canonical isoform): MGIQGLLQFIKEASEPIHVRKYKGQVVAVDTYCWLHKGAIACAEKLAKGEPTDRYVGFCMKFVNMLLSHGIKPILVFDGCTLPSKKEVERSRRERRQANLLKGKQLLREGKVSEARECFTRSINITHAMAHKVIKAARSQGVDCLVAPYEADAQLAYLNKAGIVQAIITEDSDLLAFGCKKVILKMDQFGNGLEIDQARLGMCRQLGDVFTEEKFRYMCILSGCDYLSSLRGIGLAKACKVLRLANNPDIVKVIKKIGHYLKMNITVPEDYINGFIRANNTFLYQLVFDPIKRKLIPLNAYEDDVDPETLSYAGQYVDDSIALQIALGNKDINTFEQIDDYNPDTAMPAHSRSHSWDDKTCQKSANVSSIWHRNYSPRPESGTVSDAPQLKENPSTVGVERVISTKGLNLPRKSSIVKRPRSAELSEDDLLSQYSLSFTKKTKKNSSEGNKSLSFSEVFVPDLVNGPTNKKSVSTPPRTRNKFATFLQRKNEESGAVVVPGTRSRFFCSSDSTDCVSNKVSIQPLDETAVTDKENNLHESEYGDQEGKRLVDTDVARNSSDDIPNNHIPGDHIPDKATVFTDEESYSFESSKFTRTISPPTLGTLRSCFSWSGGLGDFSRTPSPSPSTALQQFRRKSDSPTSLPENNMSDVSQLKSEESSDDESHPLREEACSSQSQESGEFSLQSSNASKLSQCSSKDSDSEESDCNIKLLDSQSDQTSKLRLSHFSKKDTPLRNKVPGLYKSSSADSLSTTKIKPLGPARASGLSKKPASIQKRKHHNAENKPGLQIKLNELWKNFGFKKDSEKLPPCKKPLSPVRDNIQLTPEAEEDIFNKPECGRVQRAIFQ
Chain of hXPG (P28715 whole entry): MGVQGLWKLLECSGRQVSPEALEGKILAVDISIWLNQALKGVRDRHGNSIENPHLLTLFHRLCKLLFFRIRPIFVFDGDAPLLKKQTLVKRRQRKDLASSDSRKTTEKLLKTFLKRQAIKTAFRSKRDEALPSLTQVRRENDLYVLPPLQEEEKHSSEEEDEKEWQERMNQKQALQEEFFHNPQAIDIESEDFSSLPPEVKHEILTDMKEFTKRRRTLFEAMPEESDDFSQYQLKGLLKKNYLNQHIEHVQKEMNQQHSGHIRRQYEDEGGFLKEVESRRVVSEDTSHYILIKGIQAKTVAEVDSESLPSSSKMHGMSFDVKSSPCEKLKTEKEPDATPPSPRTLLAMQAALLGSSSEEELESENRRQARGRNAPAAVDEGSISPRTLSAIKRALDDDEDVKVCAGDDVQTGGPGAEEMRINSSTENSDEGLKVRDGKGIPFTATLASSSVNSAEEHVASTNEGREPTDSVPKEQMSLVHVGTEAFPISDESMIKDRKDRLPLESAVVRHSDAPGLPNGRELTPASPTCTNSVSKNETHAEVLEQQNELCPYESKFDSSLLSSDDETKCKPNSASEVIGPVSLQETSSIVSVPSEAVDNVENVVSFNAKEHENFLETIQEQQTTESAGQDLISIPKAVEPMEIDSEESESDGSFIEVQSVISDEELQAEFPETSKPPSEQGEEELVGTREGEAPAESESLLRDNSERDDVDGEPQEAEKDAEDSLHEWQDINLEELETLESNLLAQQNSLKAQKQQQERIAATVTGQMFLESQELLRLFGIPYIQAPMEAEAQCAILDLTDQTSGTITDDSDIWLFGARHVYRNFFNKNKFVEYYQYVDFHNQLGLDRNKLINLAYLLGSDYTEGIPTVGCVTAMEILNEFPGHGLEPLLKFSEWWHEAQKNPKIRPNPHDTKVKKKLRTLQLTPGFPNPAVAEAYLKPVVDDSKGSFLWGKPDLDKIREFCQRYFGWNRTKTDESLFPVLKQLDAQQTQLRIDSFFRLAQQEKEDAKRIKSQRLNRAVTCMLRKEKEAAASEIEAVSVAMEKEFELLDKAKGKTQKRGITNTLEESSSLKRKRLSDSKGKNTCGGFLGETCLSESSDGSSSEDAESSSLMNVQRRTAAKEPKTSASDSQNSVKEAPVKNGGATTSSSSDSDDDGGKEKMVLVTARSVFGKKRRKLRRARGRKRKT

With `O=C(O)c1c(O)c(=O)n(Cc2cnn(Cc3ccncc3)c2)c2ccsc12` [Example 121, 6-hydroxy-5-oxo-4-{[1-(pyridin-4-ylmethyl)-1H-pyrazol-4-yl]methyl}-4,5-dihydrothieno[3,2-b]pyridine-7-carboxylic acid], the IC50 was < 200 nM in assay [1], 2250 to 10000 nM in assay [2] and 2250 to 10000 nM in assay [3].
As for `O=C(O)c1c(O)c(=O)n(Cc2cnc3ccccc3c2)c2ccsc12` [Example 101, 6-hydroxy-5-oxo-4-(quinolin-3-ylmethyl)-4,5-dihydrothieno[3,2-b]pyridine-7-carboxylic acid], the IC50 in assay [1] was in the range of 250 to 750 nM; in assay [2], 250 to 750 nM; in assay [3], 2250 to 10000 nM.
For the compound `O=C(O)c1c(O)c(=O)n(Cc2cccc(Br)c2)c2ccsc12` [Example 1, 4-(3-bromobenzyl)-6-hydroxy-5-oxo-4,5-dihydrothieno[3,2-b]pyridine-7-carboxylic acid], the half-inhibitory concentration (IC50) in assay [1] lay in the range of 250 to 750 nM; in assay [2] it was 2250 to 10000 nM; in assay [3], 2250 to 10000 nM.
As to `O=C(O)c1c(O)c(=O)n(Cc2cnc3c(Br)cccn23)c2ccsc12` [Example 164, 4-[(8-bromoimidazo[1,2-a]pyridin-3-yl)methyl]-6-hydroxy-5-oxo-4,5-dihydrothieno[3,2-b]pyridine-7-carboxylic acid], the 50% inhibitory concentration (IC50) in assay [1] and in assay [2] was 250 to 750 nM throughout.
Take `Cn1cc(Cn2c(=O)c(O)c(C(=O)O)c3sccc32)c(-c2ccccc2)n1` [Example 158, 6-hydroxy-4-[(1-methyl-3-phenyl-1H-pyrazol-4-yl)methyl]-5-oxo-4,5-dihydrothieno[3,2-b]pyridine-7-carboxylic acid]: the IC50 in assay [1] lay in the range of 2250 to 10000 nM; in assay [2] it was 750 to 2250 nM.
For `COc1cc(-c2cccn3c(Cn4c(=O)c(O)c(C(=O)O)c5sccc54)cnc23)ccn1` [Example 165, 6-hydroxy-4-{[8-(2-methoxypyridin-4-yl)imidazo[1,2-a]pyridin-3-yl]methyl}-5-oxo-4,5-dihydrothieno[3,2-b]pyridine-7-carboxylic acid] the same measures were 750 to 2250 nM and 750 to 2250 nM.
For `O=C(O)c1c(O)c(=O)n(Cc2cnc(-c3cccc4ncccc34)s2)c2ccsc12` [Example 169, 6-hydroxy-5-oxo-4-{[2-(quinolin-5-yl)thiazol-5-yl]methyl}-4,5-dihydrothieno[3,2-b]pyridine-7-carboxylic acid], in that order: 2250 to 10000 nM and 750 to 2250 nM.
For `O=C(O)c1c(O)c(=O)n(Cc2ccccc2[N+](=O)[O-])c2ccsc12` [Example 37, 6-hydroxy-4-(2-nitrobenzyl)-5-oxo-4,5-dihydrothieno[3,2-b]pyridine-7-carboxylic acid], the half-inhibitory concentration (IC50) in assay [1] lay in the range of 250 to 750 nM; in assay [2], 2250 to 10000 nM.
For `CNC(=O)c1cccc(Cn2c(=O)c(O)c(C(=O)O)c3sccc32)c1` [Example 66, 6-hydroxy-4-[3-(methylcarbamoyl)benzyl]-5-oxo-4,5-dihydrothieno[3,2-b]pyridine-7-carboxylic acid] the same measures were 2250 to 10000 nM and 2250 to 10000 nM.
For `Cc1nc(Cn2c(=O)c(O)c(C(=O)O)c3sccc32)co1` [Example 96, 6-hydroxy-4-((2-methyloxazol-4-yl)methyl)-5-oxo-4,5-dihydrothieno[3,2-b]pyridine-7-carboxylic acid] the same measures were > 10000 nM and > 10000 nM.
For the compound `O=C(O)c1c(O)c(=O)n(Cc2cnc3ccccn23)c2ccsc12` [Example 100, 6-hydroxy-4-(imidazo[1,2-a]pyridin-3-ylmethyl)-5-oxo-4,5-dihydrothieno[3,2-b]pyridine-7-carboxylic acid], the figures for the IC50 in assay [2] and in assay [3] were 750 to 2250 nM and 2250 to 10000 nM, respectively.
`O=C(O)c1c(O)c(=O)n(Cc2cnc(-c3ccnc4ccccc34)s2)c2ccsc12` [Example 170, 6-hydroxy-5-oxo-4-{[2-(quinolin-4-yl)thiazol-5-yl]methyl}-4,5-dihydrothieno[3,2-b]pyridine-7-carboxylic acid]: the IC50 in assay [1] and in assay [2] was 750 to 2250 nM throughout.
Consider `O=C(O)c1c(O)c(=O)n(CC2CCCNC2)c2ccsc12` (stereo not shown) [Example 62, 6-hydroxy-5-oxo-4-(piperidin-3-ylmethyl)-4,5-dihydrothieno[3,2-b]pyridine-7-carboxylic acid], for which the IC50 in assay [1] and in assay [2] was 2250 to 10000 nM throughout.
For `COc1ccc(-c2ncc(Cn3c(=O)c(O)c(C(=O)O)c4sccc43)s2)cc1` [Example 32, 6-hydroxy-4-{[2-(4-methoxyphenyl)thiazol-5-yl]methyl}-5-oxo-4,5-dihydrothieno[3,2-b]pyridine-7-carboxylic acid], the values for the IC50 in assay [1] and in assay [2] were 250 to 750 nM and 750 to 2250 nM, respectively.
Turning to `COc1ccc(Cn2c(=O)c(O)c(C(=O)O)c3sccc32)cn1` [Example 98, 6-hydroxy-4-[(6-methoxypyridin-3-yl)methyl]-5-oxo-4,5-dihydrothieno[3,2-b]pyridine-7-carboxylic acid], the IC50 in assay [2] and in assay [3] was 2250 to 10000 nM throughout.
Regarding `O=C(O)c1c(O)c(=O)n(CC2CCCC2)c2ccsc12` [Example 45, 4-(cyclopentylmethyl)-6-hydroxy-5-oxo-4,5-dihydrothieno[3,2-b]pyridine-7-carboxylic acid], the IC50 in assay [1] and in assay [2] was 2250 to 10000 nM in each case.
With `COc1ccc(Cn2cc(Cn3c(=O)c(O)c(C(=O)O)c4sccc43)cn2)cc1` [Example 126, 6-hydroxy-4-{[1-(4-methoxybenzyl)-1H-pyrazol-4-yl]methyl}-5-oxo-4,5-dihydrothieno[3,2-b]pyridine-7-carboxylic acid], the half-maximal inhibitory concentration (IC50) in assay [2] and in assay [3] was 2250 to 10000 nM in each case.
In the case of `Cc1nc(Cn2c(=O)c(O)c(C(=O)O)c3sccc32)cs1` [Example 92, 6-hydroxy-4-[(2-methylthiazol-4-yl)methyl]-5-oxo-4,5-dihydrothieno[3,2-b]pyridine-7-carboxylic acid], the half-inhibitory concentration (IC50) was 2250 to 10000 nM in assay [1] and > 10000 nM in assay [2].
For `Cn1ncc(Cn2c(=O)c(O)c(C(=O)O)c3sccc32)c1-c1ccccc1` [Example 160, 6-hydroxy-4-[(1-methyl-5-phenyl-1H-pyrazol-4-yl)methyl]-5-oxo-4,5-dihydrothieno[3,2-b]pyridine-7-carboxylic acid], in that order: > 10000 nM and > 10000 nM.
For `N#Cc1ccc(Cn2c(=O)c(O)c(C(=O)O)c3sccc32)cc1` [Example 48, 4-(4-cyanobenzyl)-6-hydroxy-5-oxo-4,5-dihydrothieno[3,2-b]pyridine-7-carboxylic acid], in that order: 2250 to 10000 nM and 2250 to 10000 nM.
Regarding `O=C(O)c1c(O)c(=O)n(Cc2cnn(Cc3ncc4ccccn34)c2)c2ccsc12` [Example 142], the IC50 was < 200 nM in assay [1] and 2250 to 10000 nM in assay [3].
For `O=C(O)c1c(O)c(=O)n(Cc2cnc(-c3cccc4cnccc34)s2)c2ccsc12` [Example 168, 6-hydroxy-4-{[2-(isoquinolin-5-yl)thiazol-5-yl]methyl}-5-oxo-4,5-dihydrothieno[3,2-b]pyridine-7-carboxylic acid], the IC50 in assay [1] and in assay [2] was 2250 to 10000 nM in each case.
Take `CC(=O)N1CCCC(Cn2c(=O)c(O)c(C(=O)O)c3sccc32)C1` (stereo not shown) [Example 49, 4-((1-acetylpiperidin-3-yl)methyl)-6-hydroxy-5-oxo-4,5-dihydrothieno[3,2-b]pyridine-7-carboxylic acid]: the IC50 in assay [1] and in assay [2] was 2250 to 10000 nM in each case.
